# Reference: ChEMBL document CHEMBL1201862, “PubChem BioAssay data set” (2004)
# Calls of active or inactive are those of the source.
# Legend:
# [1] = molecular target: Epstein-Barr nuclear antigen 1 (Epstein-Barr virus (strain B95-8) (HHV-4) (Human herpesvirus 4), UniProt P03211); test: inhibition of EBV nuclear antigen 1 DNA binding – biochemical, fluorescence polarization, 1536-well, dose response (AID 2381); design: species or system human gammaherpesvirus 4;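 also: fluorescence polarization of a Cy5 DNA probe bound by EBNA-1 protein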
# Chain of Epstein-Barr nuclear antigen 1 (P03211 whole entry): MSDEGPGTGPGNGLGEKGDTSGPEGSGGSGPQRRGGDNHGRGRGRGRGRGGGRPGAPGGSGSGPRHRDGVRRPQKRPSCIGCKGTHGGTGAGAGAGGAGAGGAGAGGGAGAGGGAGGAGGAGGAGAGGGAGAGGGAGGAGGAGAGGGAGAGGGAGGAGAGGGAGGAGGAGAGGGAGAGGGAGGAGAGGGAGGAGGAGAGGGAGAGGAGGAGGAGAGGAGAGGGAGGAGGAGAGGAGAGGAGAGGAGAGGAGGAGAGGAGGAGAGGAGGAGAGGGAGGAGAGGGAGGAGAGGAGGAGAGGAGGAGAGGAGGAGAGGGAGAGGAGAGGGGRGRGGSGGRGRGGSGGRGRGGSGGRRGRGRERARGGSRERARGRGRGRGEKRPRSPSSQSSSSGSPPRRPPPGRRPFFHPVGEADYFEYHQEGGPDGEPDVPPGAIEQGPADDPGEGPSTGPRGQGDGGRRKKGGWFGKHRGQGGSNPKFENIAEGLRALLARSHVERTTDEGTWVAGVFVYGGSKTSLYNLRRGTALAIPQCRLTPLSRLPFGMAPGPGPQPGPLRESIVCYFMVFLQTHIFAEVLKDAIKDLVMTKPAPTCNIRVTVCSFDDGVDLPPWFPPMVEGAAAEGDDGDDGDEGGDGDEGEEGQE
# [2] = molecular target: Lytic switch protein BZLF1 (Epstein-Barr virus (strain B95-8) (HHV-4) (Human herpesvirus 4), UniProt P03206); test: inhibition of BZLF1 ZTA DNA binding – biochemical, fluorescence polarization, Epstein-Barr virus, 1536-well, counter-screen for EBNA-1 inhibitor project, dose response (AID 2377); design: species or system human gammaherpesvirus 4;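 also: fluorescence polarization of Cy5-labelled ZRE DNA probe bound by purified Zta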
# Chain of Lytic switch protein BZLF1 (P03206 whole entry): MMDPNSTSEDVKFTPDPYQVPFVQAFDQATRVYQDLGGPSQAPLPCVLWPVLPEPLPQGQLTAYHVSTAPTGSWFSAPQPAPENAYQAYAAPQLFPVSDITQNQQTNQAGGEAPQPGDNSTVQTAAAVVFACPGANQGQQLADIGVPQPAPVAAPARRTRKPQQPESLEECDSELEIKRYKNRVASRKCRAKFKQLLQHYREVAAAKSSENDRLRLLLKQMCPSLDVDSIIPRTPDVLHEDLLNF
# [3] = molecular target: Galanin receptor type 2 (Homo sapiens, UniProt O43603); test: Dose Response cell-based high-throughput screening assay to identify antagonists of galanin receptor 2 (GALR2). [Related pubchem assays: 828, 866 ]; format: functional
# Chain of Galanin receptor type 2 (O43603 whole entry): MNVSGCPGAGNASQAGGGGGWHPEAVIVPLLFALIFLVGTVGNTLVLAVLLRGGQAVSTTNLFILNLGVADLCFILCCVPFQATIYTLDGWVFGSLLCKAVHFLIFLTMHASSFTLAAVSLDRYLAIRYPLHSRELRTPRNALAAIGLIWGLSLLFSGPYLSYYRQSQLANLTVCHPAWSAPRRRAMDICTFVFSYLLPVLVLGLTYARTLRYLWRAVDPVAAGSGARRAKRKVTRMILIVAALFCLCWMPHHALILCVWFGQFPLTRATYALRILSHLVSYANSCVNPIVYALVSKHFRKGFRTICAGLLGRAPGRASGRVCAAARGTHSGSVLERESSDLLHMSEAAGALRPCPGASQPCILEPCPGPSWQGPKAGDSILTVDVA
# [4] = molecular target: T1, COUP transcription factor 2 (Homo sapiens, UniProt P24468); test: Luminescence-based cell-based high throughput dose response assay to identify inhibitors of COUP-TFII (NR2F2).; format: functional;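 also: HEK293 cells transiently cotransfected with COUP-TFII expression vector and reporter; luciferase reporter luminescence driven by COUP-TFII from the pX2-168 reporter plasmid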
# T1 sequence (P24468 whole entry): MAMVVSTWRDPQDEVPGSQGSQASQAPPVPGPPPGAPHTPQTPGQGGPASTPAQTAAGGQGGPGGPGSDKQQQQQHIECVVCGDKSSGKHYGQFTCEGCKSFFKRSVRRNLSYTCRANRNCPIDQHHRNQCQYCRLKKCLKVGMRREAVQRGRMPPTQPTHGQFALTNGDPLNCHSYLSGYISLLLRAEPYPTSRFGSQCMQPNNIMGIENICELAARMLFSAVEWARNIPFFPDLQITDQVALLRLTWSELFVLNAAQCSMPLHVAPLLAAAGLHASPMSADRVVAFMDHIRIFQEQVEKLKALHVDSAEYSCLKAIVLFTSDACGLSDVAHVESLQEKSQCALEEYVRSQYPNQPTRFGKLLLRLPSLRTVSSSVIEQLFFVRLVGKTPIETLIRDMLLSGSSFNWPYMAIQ
# [5] = HEK-293T cell viability reduction – luminescence, B-cell screen hits, cytotoxicity control for BCR NF-kB inhibitor project, dose response (AID 489021); format: functional, cell-based;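 also: HEK-293T cells carrying an NF-kB luciferase reporter; cells exposed to compound for about 14 hours before viability readout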
# [6] = molecular target: T2, SUMO-activating enzyme (Homo sapiens, UniProt Q9UBT2); test: blockers of UBC9-mediated SUMO conjugation – biochemical, AlphaScreen, SUMOylation inhibitor project, confirmation (AID 2018); format: functional
# T2 sequence (Q9UBE0 whole entry): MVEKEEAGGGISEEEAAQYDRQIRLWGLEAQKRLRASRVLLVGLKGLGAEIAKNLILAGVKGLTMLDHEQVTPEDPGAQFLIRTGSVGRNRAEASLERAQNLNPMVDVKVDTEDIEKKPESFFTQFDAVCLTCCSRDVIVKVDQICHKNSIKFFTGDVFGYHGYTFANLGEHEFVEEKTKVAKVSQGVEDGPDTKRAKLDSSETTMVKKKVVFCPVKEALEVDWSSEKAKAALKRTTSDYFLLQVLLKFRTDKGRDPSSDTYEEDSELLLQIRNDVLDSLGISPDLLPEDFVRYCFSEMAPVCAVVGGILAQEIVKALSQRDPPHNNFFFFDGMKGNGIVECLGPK
# T2 sequence (Q9UBT2 whole entry): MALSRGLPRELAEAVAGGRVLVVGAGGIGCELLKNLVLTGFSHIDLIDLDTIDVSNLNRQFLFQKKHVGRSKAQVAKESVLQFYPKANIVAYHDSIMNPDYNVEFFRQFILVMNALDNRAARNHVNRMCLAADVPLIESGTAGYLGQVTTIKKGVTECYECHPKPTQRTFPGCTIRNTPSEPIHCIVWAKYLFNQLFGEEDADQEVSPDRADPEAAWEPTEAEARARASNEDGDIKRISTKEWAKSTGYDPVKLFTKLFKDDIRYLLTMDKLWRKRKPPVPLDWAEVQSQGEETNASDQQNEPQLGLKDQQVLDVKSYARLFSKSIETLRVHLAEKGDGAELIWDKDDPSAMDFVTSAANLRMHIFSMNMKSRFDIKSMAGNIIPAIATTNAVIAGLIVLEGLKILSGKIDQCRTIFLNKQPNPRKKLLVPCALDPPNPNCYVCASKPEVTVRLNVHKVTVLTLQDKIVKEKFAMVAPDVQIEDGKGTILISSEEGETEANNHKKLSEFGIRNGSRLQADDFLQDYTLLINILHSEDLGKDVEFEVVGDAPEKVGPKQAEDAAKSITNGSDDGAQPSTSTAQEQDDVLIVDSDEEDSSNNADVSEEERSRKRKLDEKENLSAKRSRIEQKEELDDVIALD
# [7] = molecular target: Bcl-2-like protein 1 (Homo sapiens, UniProt Q07817); test: blockers of BCLXL peptide binding – biochemical, fluorescence polarization, 1536-well, selectivity assay for MCL1 inhibitor project, dose response (AID 2218)
# Chain of Bcl-2-like protein 1 (Q07817 whole entry): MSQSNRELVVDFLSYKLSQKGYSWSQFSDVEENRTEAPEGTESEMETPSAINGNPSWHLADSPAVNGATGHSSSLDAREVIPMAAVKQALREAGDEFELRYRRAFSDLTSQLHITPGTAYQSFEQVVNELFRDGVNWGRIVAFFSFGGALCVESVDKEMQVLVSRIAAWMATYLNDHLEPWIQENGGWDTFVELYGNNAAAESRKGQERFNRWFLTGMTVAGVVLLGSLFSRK
# [8] = molecular target: T2, SUMO-activating enzyme; test: blockers of SAE1/SAE2–UBC9 SUMO transfer – biochemical, HTRF, uHTS, primary screen (AID 2006); format: protein-complex assay
# [9] = molecular target: Induced myeloid leukemia cell differentiation protein Mcl-1 (Homo sapiens, UniProt Q07820); test: blockers of MCL1 binding to BIM peptide – biochemical, fluorescence polarization, BIM-BH3 peptide, 1536-well, dose response (AID 2217)
# Chain of Induced myeloid leukemia cell differentiation protein Mcl-1 (Q07820 whole entry): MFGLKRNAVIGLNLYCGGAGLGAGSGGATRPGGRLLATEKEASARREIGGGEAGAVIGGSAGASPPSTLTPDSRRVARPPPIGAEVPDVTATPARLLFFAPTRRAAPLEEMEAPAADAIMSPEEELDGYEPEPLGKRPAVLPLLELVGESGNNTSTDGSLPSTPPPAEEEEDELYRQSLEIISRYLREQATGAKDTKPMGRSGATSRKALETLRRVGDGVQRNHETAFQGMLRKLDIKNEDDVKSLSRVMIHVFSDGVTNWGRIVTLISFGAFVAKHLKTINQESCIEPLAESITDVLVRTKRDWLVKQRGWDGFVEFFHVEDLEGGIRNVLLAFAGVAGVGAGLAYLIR
# [10] = molecular target: T3, Estrogen receptor beta (Homo sapiens, UniProt Q92731);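 also: recombinant ER-beta bound to coactivator SRC1 peptide in presence of estradiol agonist; inhibitors block coactivator peptide binding and lower the FRET signal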
# T3 sequence (Q92731 whole entry): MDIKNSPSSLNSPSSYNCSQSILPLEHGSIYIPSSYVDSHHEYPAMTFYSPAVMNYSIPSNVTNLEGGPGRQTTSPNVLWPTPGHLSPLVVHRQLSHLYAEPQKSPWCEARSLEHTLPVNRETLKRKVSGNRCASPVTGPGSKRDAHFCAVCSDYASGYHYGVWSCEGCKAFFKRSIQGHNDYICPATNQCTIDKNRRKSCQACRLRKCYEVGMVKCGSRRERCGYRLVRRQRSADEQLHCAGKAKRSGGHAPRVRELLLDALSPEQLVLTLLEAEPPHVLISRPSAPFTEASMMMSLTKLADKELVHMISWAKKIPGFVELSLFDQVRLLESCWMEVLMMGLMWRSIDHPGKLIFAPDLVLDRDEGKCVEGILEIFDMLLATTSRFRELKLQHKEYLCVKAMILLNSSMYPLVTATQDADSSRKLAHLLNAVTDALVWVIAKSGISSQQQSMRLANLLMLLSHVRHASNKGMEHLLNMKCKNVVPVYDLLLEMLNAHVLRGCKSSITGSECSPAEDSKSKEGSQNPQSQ
# [11] = molecular target: T3, Estrogen receptor beta; test: blockers of SRC-3 recruitment to ERβ – biochemical, ELISA, streptavidin-HRP readout, orthogonal assay, confirmation (AID 1060)
# [12] = molecular target: T4, Carboxy-terminal domain RNA polymerase II polypeptide A small phosphatase 1 (Homo sapiens, UniProt Q9GZU7); test: CTDSP1 inhibitors, concentration-response, biochemical, absorbance readout, ultra-high-throughput screen actives (AID 540297); format: functional
# T4 sequence (Q9GZU7 whole entry): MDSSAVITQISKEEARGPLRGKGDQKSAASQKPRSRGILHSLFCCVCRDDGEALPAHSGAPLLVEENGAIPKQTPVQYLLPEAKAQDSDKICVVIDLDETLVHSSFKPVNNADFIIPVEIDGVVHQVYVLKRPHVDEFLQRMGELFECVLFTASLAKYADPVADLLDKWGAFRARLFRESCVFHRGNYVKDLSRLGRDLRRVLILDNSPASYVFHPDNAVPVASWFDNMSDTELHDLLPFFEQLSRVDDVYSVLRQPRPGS
# [13] = cells; format: functional
# [14] = bead-based luminescence quenchers, dual-tagged ARNT – biochemical, AlphaScreen, cherry-pick, artefact control for ARNT-TACC3 interaction inhibitor project, dose response (AID 651705); format: functional;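 also: AlphaScreen bead proximity signal that flags compounds interfering with the detection technology; potency reflects signal decrease which marks the compound as an assay artifact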
# [15] = test system: BJ; test: cells; format: functional, cell-based; conditions: Homo sapiens
# [16] = test system: BJ; test: BJ-TERT-LT-ST fibroblast viability loss – cell-based, RAS-independent, luminescence, dose response (AID 1935); format: functional; conditions: Homo sapiens;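 also: BJ fibroblasts immortalized with TERT plus LT and ST oncogenes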
# [17] = molecular target: T5, Kappa-type opioid receptor (Homo sapiens, UniProt P41145); format: functional
# T5 sequence (P41145 whole entry): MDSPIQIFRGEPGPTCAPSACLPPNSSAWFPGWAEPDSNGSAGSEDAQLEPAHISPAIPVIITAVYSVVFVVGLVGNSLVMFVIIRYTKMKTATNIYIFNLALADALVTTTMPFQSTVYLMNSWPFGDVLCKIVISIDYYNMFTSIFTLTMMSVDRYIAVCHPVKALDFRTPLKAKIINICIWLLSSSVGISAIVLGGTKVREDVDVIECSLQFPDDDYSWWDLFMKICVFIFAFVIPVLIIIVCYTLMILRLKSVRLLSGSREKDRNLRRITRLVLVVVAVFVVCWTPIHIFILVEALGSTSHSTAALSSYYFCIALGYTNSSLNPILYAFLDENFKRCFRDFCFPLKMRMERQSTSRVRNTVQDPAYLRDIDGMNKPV
# [18] = cells; format: functional, cell-based
# [19] = test system: INS1; test: INS-1E survival protection against cytokine death – cell-based, luminescence, retest, dose response (AID 449756); format: functional; conditions: Rattus norvegicus;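 also: cell death triggered by IL-1 beta plus TNF-alpha plus IFN-gamma mixture; protective hits raise ATP signal compared with cytokine alone wells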
# [20] = HEK-293T viability loss after treatment – luminescence, T-cell screen hits, cytotoxicity control for TCR NF-kB inhibitor project, dose response (AID 489026); format: functional, cell-based;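 also: cells exposed to compound about 14 hours before the viability readout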
# [21] = DRD fibroblast viability loss – cell-based, non-viral oncogenic, luminescence, dose response (AID 1934); format: functional; conditions: Homo sapiens
# [22] = molecular target: T6, Type-1 angiotensin II receptor (Homo sapiens, UniProt P30556); test: antagonism of angiotensin II type 1 receptor – cell-based, uHTS hits, selectivity assay for APJ receptor antagonist project, dose response (AID 463214); format: functional;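 also: antagonist potency against angiotensin II stimulated AT1 response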
# T6 sequence (P30556 whole entry): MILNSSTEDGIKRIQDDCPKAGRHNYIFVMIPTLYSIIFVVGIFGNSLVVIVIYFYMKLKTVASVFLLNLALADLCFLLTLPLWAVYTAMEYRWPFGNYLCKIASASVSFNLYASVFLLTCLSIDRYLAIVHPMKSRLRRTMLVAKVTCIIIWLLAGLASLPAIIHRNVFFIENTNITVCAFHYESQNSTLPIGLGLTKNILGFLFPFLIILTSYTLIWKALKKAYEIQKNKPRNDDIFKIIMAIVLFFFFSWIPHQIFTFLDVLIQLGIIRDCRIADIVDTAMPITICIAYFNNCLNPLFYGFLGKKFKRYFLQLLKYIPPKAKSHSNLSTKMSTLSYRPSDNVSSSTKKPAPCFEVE
# [23] = THP-1 cell cytotoxicity, dose response, cytotoxicity control for non-replicating M. tuberculosis project (AID 489025); format: functional
# [24] = molecular target: T5, Kappa-type opioid receptor; format: functional; remark: listed apart in the source
# [25] = cells; format: functional, cell-based; remark: listed apart in the source
# [26] = test system: BJ; test: growth inhibition of engineered Ras-driven BJ cells – cell-based, alamar blue fluorescence, cherrypicked samples, dose response (AID 2631); format: functional; conditions: Homo sapiens;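 also: confirmatory dose-response assay in RAS-dependent BJ fibroblasts engineered with TERT, LT and ST, with cytotoxicity read by fluorescence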
# [27] = molecular target: T7, Beta-galactosidase (Escherichia coli, UniProt Q8VNN2); test: PubChem AID 485352; format: functional
# T7 sequence (Q8VNN2 whole entry): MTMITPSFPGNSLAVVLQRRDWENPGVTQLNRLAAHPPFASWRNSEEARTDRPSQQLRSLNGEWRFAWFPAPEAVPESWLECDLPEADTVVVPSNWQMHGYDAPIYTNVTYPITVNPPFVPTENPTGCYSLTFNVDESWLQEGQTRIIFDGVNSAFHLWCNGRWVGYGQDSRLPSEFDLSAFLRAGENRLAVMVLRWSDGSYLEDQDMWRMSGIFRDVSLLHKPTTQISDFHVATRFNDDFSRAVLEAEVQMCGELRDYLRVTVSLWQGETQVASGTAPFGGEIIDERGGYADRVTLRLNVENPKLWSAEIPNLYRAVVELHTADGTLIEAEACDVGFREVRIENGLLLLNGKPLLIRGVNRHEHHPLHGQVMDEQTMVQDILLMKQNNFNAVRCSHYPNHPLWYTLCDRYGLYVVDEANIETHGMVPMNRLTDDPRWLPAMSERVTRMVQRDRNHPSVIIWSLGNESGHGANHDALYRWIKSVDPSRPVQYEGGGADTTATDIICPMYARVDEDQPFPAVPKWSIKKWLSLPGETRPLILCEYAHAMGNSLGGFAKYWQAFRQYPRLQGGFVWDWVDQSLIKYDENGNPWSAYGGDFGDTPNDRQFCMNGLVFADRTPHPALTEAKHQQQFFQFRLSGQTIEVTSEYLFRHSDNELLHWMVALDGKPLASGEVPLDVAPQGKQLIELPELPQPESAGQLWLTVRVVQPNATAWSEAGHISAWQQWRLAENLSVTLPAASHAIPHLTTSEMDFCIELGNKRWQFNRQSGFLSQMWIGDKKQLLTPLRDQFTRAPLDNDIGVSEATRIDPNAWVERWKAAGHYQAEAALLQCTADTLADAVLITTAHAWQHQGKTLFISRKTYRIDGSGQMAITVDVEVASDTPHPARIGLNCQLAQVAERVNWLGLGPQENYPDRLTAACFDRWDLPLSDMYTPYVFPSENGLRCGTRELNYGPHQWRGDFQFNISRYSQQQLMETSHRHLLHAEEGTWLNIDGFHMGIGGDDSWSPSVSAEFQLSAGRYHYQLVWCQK
# [28] = HepG2 cell cytotoxicity, dose response, cytotoxicity control for non-replicating M. tuberculosis project (AID 489018); format: functional; conditions: Mycobacterium tuberculosis
# [29] = molecular target: T8, Heat shock factor protein 1 (Mus musculus, UniProt P38532); test: enhancement of HSF1-driven luciferase signal – cell-based, NIH3T3, luminescence, dose retest, confirmation (AID 435004); format: functional;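 also: stress induced by proteasome inhibitor MG132 added 30 min after compound; luciferase reporter driven by HSF1 response element in NIH3T3 cells; actives raise luminescence as potentiators of the MG132 stress response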
# T8 sequence (P38532 whole entry): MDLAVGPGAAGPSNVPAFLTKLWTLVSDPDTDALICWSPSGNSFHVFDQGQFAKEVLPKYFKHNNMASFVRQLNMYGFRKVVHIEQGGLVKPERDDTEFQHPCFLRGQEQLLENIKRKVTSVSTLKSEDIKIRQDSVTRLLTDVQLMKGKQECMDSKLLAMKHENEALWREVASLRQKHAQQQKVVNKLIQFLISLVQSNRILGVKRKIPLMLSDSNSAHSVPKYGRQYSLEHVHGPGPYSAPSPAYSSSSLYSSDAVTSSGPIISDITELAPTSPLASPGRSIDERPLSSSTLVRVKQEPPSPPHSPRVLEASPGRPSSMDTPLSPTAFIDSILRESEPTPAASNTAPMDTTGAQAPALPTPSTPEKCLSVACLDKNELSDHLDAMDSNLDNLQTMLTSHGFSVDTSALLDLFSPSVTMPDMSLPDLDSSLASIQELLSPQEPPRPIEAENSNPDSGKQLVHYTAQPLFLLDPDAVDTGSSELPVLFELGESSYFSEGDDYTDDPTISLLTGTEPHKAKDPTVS
# [30] = test system: Vero; test: cells; format: functional; conditions: Chlorocebus sabaeus
# [31] = Luminescence-based dose response cell-based high throughput screening assay for cytotoxic compounds using the IEC-6 intestinal epithelial cell line. [Related pubchem assays: 1858 (Summary AID.), 1825 (Counterscreen.), 1907 (Confirmation screen.)]; format: functional
# [32] = test system: BJ; test: BJ-TERT fibroblast viability loss – cell-based, RAS-independent, luminescence, dose response (AID 1933); format: functional; conditions: Homo sapiens
# [33] = test system: Streptococcus sp. 'group A'; test: Streptococcus pyogenes SK(-)GAS viability under kanamycin – luminescence, BacTiterGlo, confirmation, counter-screen for streptokinase expression inhibitor project, dose response (AID 1900); format: functional, organism-based
# [34] = molecular target: T7, Beta-galactosidase; format: functional
# [35] = molecular target: T9, Streptokinase A (Streptococcus pyogenes serotype M1, UniProt P10520); test: viability-normalized secreted streptokinase activity reduction – plasminogen activation absorbance, OD405, dose response (AID 1914); format: functional, Streptococcus pyogenes M1 GAS;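 also: secreted streptokinase activity via plasminogen activation per viability signal from cell pellet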
# T9 sequence (P10520 whole entry): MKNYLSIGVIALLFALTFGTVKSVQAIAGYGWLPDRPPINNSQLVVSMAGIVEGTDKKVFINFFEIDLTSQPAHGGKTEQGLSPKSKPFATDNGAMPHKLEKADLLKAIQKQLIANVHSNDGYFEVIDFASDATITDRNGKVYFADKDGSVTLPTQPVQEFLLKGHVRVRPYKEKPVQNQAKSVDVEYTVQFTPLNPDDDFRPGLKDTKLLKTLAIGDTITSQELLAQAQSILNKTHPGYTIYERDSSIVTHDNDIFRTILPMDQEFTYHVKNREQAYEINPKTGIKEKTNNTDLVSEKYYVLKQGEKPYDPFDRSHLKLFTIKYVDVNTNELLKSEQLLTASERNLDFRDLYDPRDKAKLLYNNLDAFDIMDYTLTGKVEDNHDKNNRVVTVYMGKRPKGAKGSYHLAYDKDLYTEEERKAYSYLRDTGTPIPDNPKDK
# [36] = test system: Streptococcus; test: GAS UMAA2166 growth inhibition – luminescence, BacTiterGlo, counter-screen for streptokinase expression inhibitor project, dose response (AID 1915); format: functional, organism-based;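 also: potency for reduction of bacterial viability or growth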
# [37] = Vero E6 cell cytotoxicity, dose response, cytotoxicity control for non-replicating M. tuberculosis project, secondary assay (AID 492998); format: functional, VeroE6; conditions: Vero C1008
compound,measurement,setting,value
Cc1ccc(C(=O)Nc2nc3ccc(S(C)(=O)=O)cc3s2)cc1C,IC50,[1],4.48 µM (active)
same,IC50,[2],> 111 µM (not active)
Cc1cc(C)c(S(=O)(=O)NCc2ccncc2)c(C)c1,IC50,[3],> 42 µM (not active)
same,IC50,[4],4.96 µM (active)
same,IC50,[5],> 80 µM (inactive)
Cc1ccc(C(=O)O)cc1-c1ccc(/C=C2\SC(=O)N(CC(=O)Nc3ccc4c(c3)OCO4)C2=O)o1,IC50,[6],4.35 µM (active)
same,IC50,[7],> 109 µM (not active)
same,IC50,[8],10.3 µM (active)
same,IC50,[9],> 4.03 µM (active)
CCOC(=O)C1CCCN(C(=O)c2ccc(CS(=O)(=O)c3ccc(C)cc3)o2)C1 (configuration not stated),IC50,[10],13.7 µM (active)
same,IC50,[11],< 23 nM (not active)
same,IC50,[12],7.41 µM (active)
O=C(N/N=C(\c1ccccc1)c1cccnc1)c1cccc(F)c1,IC50,[13],1.73 µM (active)
same,AC50,[14],120 µM (active)
same,EC50,[15],5.95 µM (active)
same,EC50,[16],4.43 µM (active)
same,IC50,[17],13.1 µM (active)
same,EC50,[18],28.7 µM (active)
same,AC50,[19],519 nM (active)
same,IC50,[20],> 80 µM (inactive)
same,EC50,[21],5.35 µM (inconclusive)
same,IC50,[22],10.8 µM (active)
same,CC50,[23],726 nM (active)
same,IC50,[24],> 32 µM
same,EC50,[25],> 350 µM (not active)
same,EC50,[26],939 nM (active)
same,EC50,[27],> 40 µM (inactive)
same,CC50,[28],9.37 µM (active)
same,EC50,[29],21.5 µM (active)
same,CC50,[30],1.7 µM (active)
same,IC50,[31],747 nM (active)
same,EC50,[32],12.4 µM (active)
same,EC50,[33],5.5 µM (active)
same,EC50,[34],> 31.5 µM (inactive)
same,EC50,[35],> 150 µM (not active)
same,EC50,[36],11 µM (active)
same,CC50,[37],1.18 µM (active)
